Results taken from PubChem BioAssay (NCI).
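The compound was tested at five concentrations on cells cultured in 96-well plates, with a 48-hour exposure period. Definition used: TGI = concentration required for complete inhibition of growth.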

What was measured:
Test in all cases: NCI anticancer screen, dose series, 48 h
786-0 renal = system: 786-0 renal
A498 renal = system: A498 renal
A549 NSCLC = system: A549 NSCLC
ACHN renal = system: ACHN renal
BT-549 breast = system: BT-549 breast
CAKI-1 renal = system: CAKI-1 renal
COLO 205 colon = system: COLO 205 colon
DU-145 prostate = system: DU-145 prostate
EKVX NSCLC = system: EKVX NSCLC
HCT-116 colon = system: HCT-116 colon
HCT-15 colon = system: HCT-15 colon
HOP-62 NSCLC = system: HOP-62 NSCLC
HOP-92 NSCLC = system: HOP-92 NSCLC
HS 578T breast = system: HS 578T breast
HT29 colon = system: HT29 colon
IGROV1 ovarian = system: IGROV1 ovarian
K-562 leukemia = system: K-562 leukemia
KM12 colon = system: KM12 colon
LOX IMVI melanoma = system: LOX IMVI melanoma
M14 melanoma = system: M14 melanoma
MALME-3M melanoma = system: MALME-3M melanoma
MCF7 breast = system: MCF7 breast
MDA-MB-231 breast = system: MDA-MB-231 breast
MDA-MB-435 = system: MDA-MB-435
MDA-N = system: MDA-N
MOLT-4 leukemia = system: MOLT-4 leukemia
NCI-H226 lung = system: NCI-H226 lung
NCI-H23 lung = system: NCI-H23 lung
NCI-H522 lung = system: NCI-H522 lung
NCI/ADR-RES ovarian = system: NCI/ADR-RES ovarian
OVCAR-3 ovarian = system: OVCAR-3 ovarian
OVCAR-4 ovarian = system: OVCAR-4 ovarian
OVCAR-5 ovarian = system: OVCAR-5 ovarian
OVCAR-8 ovarian = system: OVCAR-8 ovarian
PC-3 prostate = system: PC-3 prostate
RPMI-8226 leukemia = system: RPMI-8226 leukemia
RXF 393 renal = system: RXF 393 renal
SF-268 CNS = system: SF-268 CNS
SF-295 CNS = system: SF-295 CNS
SF-539 CNS = system: SF-539 CNS
SK-MEL-2 melanoma = system: SK-MEL-2 melanoma
SK-MEL-28 melanoma = system: SK-MEL-28 melanoma
SK-MEL-5 melanoma = system: SK-MEL-5 melanoma
SK-OV-3 ovarian = system: SK-OV-3 ovarian
SN12C renal = system: SN12C renal
SNB-19 CNS = system: SNB-19 CNS
SNB-75 CNS = system: SNB-75 CNS
SR leukemia = system: SR leukemia
SW-620 colon = system: SW-620 colon
T-47D breast = system: T-47D breast
TK-10 renal = system: TK-10 renal
U251 CNS = system: U251 CNS
UACC-257 melanoma = system: UACC-257 melanoma
UACC-62 melanoma = system: UACC-62 melanoma
UO-31 renal = system: UO-31 renal
CCRF-CEM leukemia = system: CCRF-CEM leukemia
HCC-2998 colon = system: HCC-2998 colon
HL-60(TB) leukemia = system: HL-60(TB) leukemia
NCI-H460 lung = system: NCI-H460 lung

For O=S(=O)(O)c1cc(O)c2c(O)c(N=Nc3cccc4ccccc34)c(S(=O)(=O)O)cc2c1, the TGI (786-0 renal) was over 100 µM, the TGI (A498 renal) was over 100 µM and the TGI (A549 NSCLC) was over 100 µM. The TGI (ACHN renal) was over 100 µM, the TGI (BT-549 breast) was over 100 µM and the TGI (CAKI-1 renal) was over 100 µM. For the same compound, the TGI (COLO 205 colon) was over 100 µM, the TGI (DU-145 prostate) was over 100 µM and the TGI (EKVX NSCLC) was over 100 µM. For the same compound, the TGI (HCT-116 colon) was over 100 µM, the TGI (HCT-15 colon) was over 100 µM and the TGI (HOP-62 NSCLC) was over 100 µM. It also gave a TGI (HOP-92 NSCLC) of over 100 µM, a TGI (HS 578T breast) of over 100 µM and a TGI (HT29 colon) of over 100 µM. It also gave a TGI (IGROV1 ovarian) of over 100 µM, a TGI (K-562 leukemia) of over 100 µM and a TGI (KM12 colon) of over 100 µM. The TGI (LOX IMVI melanoma) was over 100 µM, the TGI (M14 melanoma) was over 100 µM and the TGI (MALME-3M melanoma) was over 100 µM. The TGI (MCF7 breast) was over 100 µM, the TGI (MDA-MB-231 breast) was over 100 µM and the TGI (MDA-MB-435) was over 100 µM. The TGI (MDA-N) was over 100 µM, the TGI (MOLT-4 leukemia) was over 100 µM and the TGI (NCI-H226 lung) was over 100 µM. It also gave a TGI (NCI-H23 lung) of over 100 µM, a TGI (NCI-H522 lung) of over 100 µM and a TGI (NCI/ADR-RES ovarian) of over 100 µM. It also gave a TGI (OVCAR-3 ovarian) of over 100 µM, a TGI (OVCAR-4 ovarian) of over 100 µM and a TGI (OVCAR-5 ovarian) of over 100 µM. The TGI (OVCAR-8 ovarian) was over 100 µM, the TGI (PC-3 prostate) was over 100 µM and the TGI (RPMI-8226 leukemia) was over 100 µM. For the same compound, the TGI (RXF 393 renal) was over 100 µM, the TGI (SF-268 CNS) was over 100 µM and the TGI (SF-295 CNS) was over 100 µM. The TGI (SF-539 CNS) was over 100 µM, the TGI (SK-MEL-2 melanoma) was over 100 µM and the TGI (SK-MEL-28 melanoma) was over 100 µM. The TGI (SK-MEL-5 melanoma) was over 100 µM, the TGI (SK-OV-3 ovarian) was over 100 µM and the TGI (SN12C renal) was over 100 µM. For the same compound, the TGI (SNB-19 CNS) was over 100 µM, the TGI (SNB-75 CNS) was over 100 µM and the TGI (SR leukemia) was over 100 µM. For the same compound, the TGI (SW-620 colon) was over 100 µM, the TGI (T-47D breast) was over 100 µM and the TGI (TK-10 renal) was over 100 µM. It also gave a TGI (U251 CNS) of over 100 µM, a TGI (UACC-257 melanoma) of over 100 µM and a TGI (UACC-62 melanoma) of over 100 µM. The TGI (UO-31 renal) was over 100 µM.

COc1cc([C@H]2Oc3c(OC)cc(CCCO)cc3[C@@H]2CO)ccc1O was tested, and the TGI (786-0 renal) was over 100 µM, the TGI (A498 renal) was over 100 µM and the TGI (A549 NSCLC) was over 100 µM. It also gave a TGI (ACHN renal) of over 100 µM, a TGI (BT-549 breast) of over 100 µM and a TGI (CCRF-CEM leukemia) of over 100 µM. For the same compound, the TGI (COLO 205 colon) was over 100 µM, the TGI (DU-145 prostate) was over 100 µM and the TGI (EKVX NSCLC) was over 100 µM. The TGI (HCC-2998 colon) was over 100 µM, the TGI (HCT-116 colon) was over 100 µM and the TGI (HCT-15 colon) was over 100 µM. The TGI (HL-60(TB) leukemia) was over 100 µM, the TGI (HOP-62 NSCLC) was over 100 µM and the TGI (HOP-92 NSCLC) was over 100 µM. The TGI (HS 578T breast) was over 100 µM, the TGI (HT29 colon) was over 100 µM and the TGI (IGROV1 ovarian) was over 100 µM. For the same compound, the TGI (K-562 leukemia) was over 100 µM, the TGI (KM12 colon) was over 100 µM and the TGI (LOX IMVI melanoma) was over 100 µM. It also gave a TGI (M14 melanoma) of over 100 µM, a TGI (MALME-3M melanoma) of over 100 µM and a TGI (MCF7 breast) of over 100 µM. The TGI (MDA-MB-231 breast) was over 100 µM, the TGI (MDA-MB-435) was over 100 µM and the TGI (MDA-N) was over 100 µM. For the same compound, the TGI (MOLT-4 leukemia) was over 100 µM, the TGI (NCI-H226 lung) was over 100 µM and the TGI (NCI-H23 lung) was over 100 µM. The TGI (NCI-H460 lung) was over 100 µM, the TGI (NCI-H522 lung) was over 100 µM and the TGI (NCI/ADR-RES ovarian) was over 100 µM. The TGI (OVCAR-3 ovarian) was over 100 µM, the TGI (OVCAR-4 ovarian) was over 100 µM and the TGI (OVCAR-5 ovarian) was over 100 µM. It also gave a TGI (OVCAR-8 ovarian) of over 100 µM, a TGI (PC-3 prostate) of over 100 µM and a TGI (RPMI-8226 leukemia) of over 100 µM. For the same compound, the TGI (RXF 393 renal) was over 100 µM, the TGI (SF-268 CNS) was over 100 µM and the TGI (SF-295 CNS) was over 100 µM. It also gave a TGI (SF-539 CNS) of over 100 µM, a TGI (SK-MEL-2 melanoma) of over 100 µM and a TGI (SK-MEL-28 melanoma) of over 100 µM. The TGI (SK-MEL-5 melanoma) was over 100 µM, the TGI (SK-OV-3 ovarian) was over 100 µM and the TGI (SN12C renal) was over 100 µM. It also gave a TGI (SNB-19 CNS) of over 100 µM, a TGI (SNB-75 CNS) of over 100 µM and a TGI (SR leukemia) of over 100 µM. It also gave a TGI (SW-620 colon) of over 100 µM, a TGI (T-47D breast) of over 100 µM and a TGI (TK-10 renal) of over 100 µM. It also gave a TGI (U251 CNS) of over 100 µM, a TGI (UACC-257 melanoma) of over 100 µM and a TGI (UACC-62 melanoma) of over 100 µM. The TGI (UO-31 renal) was over 100 µM.

For CC1(C)CC2=C(Sc3ccccc3N2)C(=O)C1C(=O)C(=O)Nc1cc(Cl)ccc1Cl (stereo not given), the TGI (786-0 renal) was over 100 µM, the TGI (A498 renal) was over 100 µM and the TGI (A549 NSCLC) was over 100 µM. It also gave a TGI (ACHN renal) of over 100 µM, a TGI (BT-549 breast) of over 100 µM and a TGI (CAKI-1 renal) of over 100 µM. For the same compound, the TGI (CCRF-CEM leukemia) was over 100 µM, the TGI (COLO 205 colon) was over 100 µM and the TGI (DU-145 prostate) was over 100 µM. For the same compound, the TGI (EKVX NSCLC) was over 100 µM, the TGI (HCC-2998 colon) was over 100 µM and the TGI (HCT-116 colon) was over 100 µM. For the same compound, the TGI (HCT-15 colon) was over 100 µM, the TGI (HL-60(TB) leukemia) was over 100 µM and the TGI (HOP-92 NSCLC) was over 100 µM. The TGI (HS 578T breast) was over 100 µM, the TGI (HT29 colon) was over 100 µM and the TGI (IGROV1 ovarian) was over 100 µM. It also gave a TGI (K-562 leukemia) of over 100 µM, a TGI (KM12 colon) of over 100 µM and a TGI (LOX IMVI melanoma) of over 100 µM. For the same compound, the TGI (M14 melanoma) was over 100 µM, the TGI (MALME-3M melanoma) was over 100 µM and the TGI (MCF7 breast) was over 100 µM. The TGI (MDA-MB-231 breast) was over 100 µM, the TGI (MDA-MB-435) was over 100 µM and the TGI (MDA-N) was over 100 µM. The TGI (MOLT-4 leukemia) was over 100 µM, the TGI (NCI-H226 lung) was over 100 µM and the TGI (NCI-H23 lung) was over 100 µM. The TGI (NCI-H460 lung) was 28.1 µM, the TGI (NCI-H522 lung) was over 100 µM and the TGI (NCI/ADR-RES ovarian) was over 100 µM. It also gave a TGI (OVCAR-3 ovarian) of over 100 µM, a TGI (OVCAR-4 ovarian) of over 100 µM and a TGI (OVCAR-5 ovarian) of over 100 µM. For the same compound, the TGI (OVCAR-8 ovarian) was over 100 µM, the TGI (PC-3 prostate) was over 100 µM and the TGI (RPMI-8226 leukemia) was over 100 µM. It also gave a TGI (RXF 393 renal) of over 100 µM, a TGI (SF-268 CNS) of over 100 µM and a TGI (SF-295 CNS) of over 100 µM. For the same compound, the TGI (SF-539 CNS) was over 100 µM, the TGI (SK-MEL-2 melanoma) was over 100 µM and the TGI (SK-MEL-28 melanoma) was over 100 µM. It also gave a TGI (SK-MEL-5 melanoma) of over 100 µM, a TGI (SK-OV-3 ovarian) of over 100 µM and a TGI (SN12C renal) of over 100 µM. It also gave a TGI (SNB-19 CNS) of over 100 µM, a TGI (SNB-75 CNS) of over 100 µM and a TGI (SR leukemia) of over 100 µM. It also gave a TGI (SW-620 colon) of over 100 µM, a TGI (T-47D breast) of over 100 µM and a TGI (U251 CNS) of over 100 µM. It also gave a TGI (UACC-257 melanoma) of over 100 µM, a TGI (UACC-62 melanoma) of over 100 µM and a TGI (UO-31 renal) of over 100 µM.
